{"source": "patent US9067974B2", "about": "“Polymyxin derivatives and uses thereof” (priority 2006, dated 2015)", "key": {"[1]": {"test_system": "S. marcescens ATCC8100", "assay": "E-test MIC of antibiotics on Mueller-Hinton agar with or without NAB7061 (4 μg/ml); sensitization factor = MIC ratio absence/presence", "format": "cell-based, Serratia marcescens", "description": "(§1) MICs were determined by using E-strips (Biodisk Ltd., Solna, Sweden) according to the manufacturer's instructions.\nThe strains originated from ATCC (11 strains), CCUG (11 strains), and NCTC (The National Collection of Type Cultures, Colindale, U.K.; 2 strains). Eight strains (the F-strains) were purchased from Mobidiag Ltd., Helsinki, Finland. The source of E. coli IH3080 has been given in Example 2. Sensitization factor was defined as in Example 7."}, "[2]": {"test_system": "E. coli (ATCC25922 and IH3080), K. pneumoniae ATCC13883, and E. cloacae ATCC23355", "assay": "E-test sensitization by NAB7061 (4 μg/ml), summary over the tested strains of Table 7", "format": "cell-based", "conditions": "range over the tested strains", "description": "as §1"}, "[3]": {"test_system": "E. coli IH3080 (K1:O18)", "assay": "Well diffusion growth inhibition on LB agar plates (direct antibacterial activity)", "format": "cell-based, Escherichia coli", "method_in_brief": "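Growth inhibition of encapsulated E. coli IH3080 (K1:O18) was measured by well diffusion on LB agar plates. A suspension of about 10^8 cells/ml in 0.9% NaCl, made from an overnight LB agar culture, was spread over the plates and the excess removed. Once dry, five 2 mm wells were drilled per plate and test solutions added, with 0.9% NaCl as control. After 18 h at 37° C, inhibition zone diameters were measured and converted to surface areas in square mm.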"}, "[4]": {"assay": "Two-week intravenous toxicity study in young rats", "format": "in vivo", "description": "Toxicity in young rats (weighing approx. 150 g in the beginning of the study) was determined by administering doses (1, 2, 4, 8, 16, and 32 mg/kg per day) of NAB7061 as well as the control compound polymyxin B intravenously twice (2) a day for two weeks. A group of ten (10) rats was studied for each dosis regimen. Clinical observations were made daily, the body weight measured twice weekly, and the food consumption twice weekly. In the end of week 2, all animals were sacrificed.\nHistopathology of kidneys was performed for each animals and histopathology of all tissues was performed in three high-dose groups receiving NAB7061."}, "[5]": {"test_system": "E. coli IH3080 (K1:O18)", "assay": "Experimental E. coli peritonitis model in mice", "format": "in vivo", "conditions": "4.5 h postinfection ([…] after the treatment), 5 mg/kg subcutaneous", "description": "A suspension of E. coli IH3080 (K1:O18) in saline (0.9% NaCl) was prepared from an overnight culture on a blood agar plate (Statens Serum Institut, Copenhagen, Denmark). All mice (female NMR1 from Harlan Scandinavia, Allerød, Denmark; weight, 25-30 g) were inoculated intraperitoneally with 0.5 ml of the suspension containing 0.96×10^6 CFU per ml in the lateral lower quadrant of the abdomen. At 1 h, the CFU count was determined from three mice and the remaining mice (four mice per group) were treated with a subcutaneous injection of 0.2 ml of erythromycin solution in saline (corresponding to 5 mg/kg body weight) or NAB7061 solution in saline (corresponding to 5 mg/kg body weight), or both erythromycin and NAB7061 (corresponding to 5 mg/kg body weight of both drugs; given at two separate sites). Control group received two 0.2 ml injections of saline. At 4.5 h postinfection, all mice were anaesthetized with CO2 and sacrificed. Sterile saline (2 ml) was injected intraperitoneally and the abdomen was gently massaged before it was opened and the fluid sampled. Appropriate dilutions of the fluid were plated on blood agar plates, the plates were incubated overnight, and the colonies were counted."}}, "note": "Bridge positions count the residues as written; N and C are the ends. Square brackets hold non-standard residues; d marks the D form. Peptide text beside a SMILES is read from it. * marks the point of attachment. Octanoyl = CCCCCCCC(=O)*; Dab = NCC[C@H](N)C(=O)O; Abu = CC[C@H](N)C(=O)O"}
{"smiles": "CCCCCCCC(=O)N[C@H](C(=O)N[C@@H](CC)C(=O)N[C@H]1CCNC(=O)[C@H]([C@@H](C)O)NC(=O)[C@H](CCN)NC(=O)[C@H](CCN)NC(=O)[C@H](CC(C)C)NC(=O)[C@@H](Cc2ccccc2)NC(=O)[C@H](CCN)NC1=O)[C@@H](C)O", "note": "[NAB 7061, OA-Thr-Abu-cy[Dab-Dab-DPhe-Leu-Dab-Dab-Thr-]] (Octanoyl-T[Abu][Dab][Dab][dF]L[Dab][Dab]T; lactam 3-C)", "values": [{"measurement": "MIC of rifampin in the presence of 4 μg/ml of NAB 7061", "setting": "[1]", "result": 16, "unit": "µg/mL"}, {"measurement": "Sensitization factor to azithromycin", "setting": "[2]", "result": "31-94"}, {"measurement": "Sensitization factor to clarithromycin", "setting": "[2]", "result": "63-380"}, {"measurement": "Antibacterial activity (growth inhibition area around a well)", "setting": "[3]; 4 μg of compound per well", "result": 0, "unit": "square millimeters"}, {"measurement": "Antibacterial activity (growth inhibition area around a well)", "setting": "[3]; 10 μg of compound per well", "result": 50, "unit": "square millimeters"}, {"measurement": "Rise of blood urea nitrogen (BUN) versus control or low dose group", "setting": "[4]; rat, in vivo, 16 mg/kg/day", "result": "no such a rise was found"}, {"measurement": "Lowest dose that negatively influenced the body weight gain", "setting": "[4]; rat, in vivo, iv", "result": 8, "unit": "mg/kg per day"}, {"measurement": "Survival throughout the study", "setting": "[4]; rats, doses 1 to 32 mg/kg per day intravenously for two weeks", "result": "all rats receiving NAB7061 remained alive throughout the study"}, {"measurement": "General pathology and histopathology of organs and kidneys", "setting": "[4]; rats, two weeks intravenous dosing", "result": "No NAB7061-related pathological findings were found"}, {"measurement": "CFU counts in peritoneal fluid", "setting": "[5]", "result": "1.1 (±0.6)×10^6 per ml"}]}
